# Assay results reported in patent publication US20240108734A1, “METHODS FOR TREATING AND AMELIORATING CANCER” (The Regents of the University of California, priority 2021, published 2024).
# “Also recorded” adds a separate entry of the source.
# Assays:
# [1] = Tolerability (change in percent body weight) in xenograft models; assay type: in vivo; conditions: mice transplanted with CB, BC CML or MF progenitors
# Excerpt: FIG. 8A graphically illustrates data showing the change in percent body weight in mice transplanted with cord blood (CB) treated with vehicle (black), mismatch control (blue) or imetelstat (red);
# FIG. 8B graphically illustrates data showing the change in percent body weight in mice transplanted with BC CML treated with vehicle (black), mismatch control (blue) or imetelstat (red);
# FIG. 8C graphically illustrates data showing the change in percent body weight in mice transplanted with myelofibrosis (MF) progenitors treated with vehicle (black), mismatch control (blue) or imetelstat (red);
# ADAR1p150 = ADAR1p150 expression in human CD45+ cells from treated BC CML mice; assay type: in vivo; conditions: p=0.016
# Excerpt: FIG. 5G. Boxplot depicting Log 2 (cpm) expression of ADAR1p150 by RNA-seq of human CD45^+ cells isolated from vehicle (red), mismatch control (blue) and imetelstat (green) treated BC CML mouse cells. The p-values from Student's t-tests are shown (Student's t-test: vehicle: p=0.337, imetelstat tx: p=0.016).
# BC CML CD34+ cells (LSC) = assay: SL/M2 stromal co-culture, clonogenic survival and self-renewal (replating) assays, BC CML; assay type: cell-based, human; conditions: imetelstat monotherapy, 1 to 10 μM, vs mismatch control
# Excerpt: Lentiviral human wild-type and mutant ADAR1^E912A (pCDH-EF1-T2A-copGFP) and shRNA targeting ADAR1 were produced according to published protocols^27,37. In Vitro MPN-SPC and LSC Survival and Self-Renewal Assays with Imetelstat To assess MPN progenitor and LSC survival and self-renewal in vitro, human primary CD34^+ cells selected from BC CML (n=5), MF (n=9) or age matched normal bone marrow (a-NBM, n=4) were co-cultured with SL/M2 stromal cells for 7-14 days, and then treated with imetelstat alone or combined with dasatinib for BC CML or Pacritinib for MF. Colony forming and replating assays were performed as previously described^32.
# To assess MPN progenitor and LSC survival and self-renewal in vitro, human primary CD34^+ cells selected from BC CML (n=5), MF (n=9) or age matched normal bone marrow (a-NBM, n=4) were co-cultured with SL/M2 stromal cells for 7-14 days, and then treated with Imetelstat alone or combined with dasatinib for BC CML or Pacritinib for MF. Colony forming and replating assays were performed as previously described^32,33.
# FIG. 3A. A schematic illustration of SL/M2 stromal co-cultures established to quantify in vitro MPN-SPC and LSC survival and self-renewal. Human primary CD34^+ cells selected from BC CML (n=5), MF (n=9) or age matched normal bone marrow (a-NBM, n=4) were co-cultured with SL/M2 stromal cells for 7-14 days. […]
# [2] = test system: BC CML CD34+ cells engrafted in RAG2-/-yc-/- mice; assay: Humanized BC CML LSC mouse model; assay type: in vivo
# Excerpt: Human CD34^+ cells isolated from MF and BC CML samples (Table S2, illustrated as FIG. 11) were transplanted intravenously into adult NSG-SGM3 (expressing human IL-3, GM-CSF and SCF) mice following 300 cGy of irradiation or intrahepatically into neonatal RAG2^−/− yc^−/− mice, respectively^27,32.
# Human CD34^+ cells isolated from MF and BC CML (Table S2) samples were transplanted intravenously into adult NSG-SGM3 (expressing human IL-3, GM-CSF and SCF) mice following
# 300 cGy of irradiation or intrahepatically into newborn RAG2^−/−[…]c^−/− mice^28,32,34. Post-transplantation (13 to 16 weeks), bone marrow and spleen were collected and analyzed by FACS^32. Mice were treated with vehicle, mismatch or imetelstat at varying doses. Also, MF CD34^+ cells were transduced with pCDH lentivirus control or ADAR1-OE lentivirus with a MOI of 100 for 48 hours, followed by intravenous transplantation into NSG-SGM3 mice to assess the impact of ADAR1 overexpression on MF engraftment.
# FIG. 4A. A schema of humanized BC CML LSC and MF SPC mouse models. Human CD34^+ cells sorted from either BC CML or myelofibrosis patient blood or marrow were transplanted into neonatal Rag2^−/−[…]c^−/− mice or intravenously transplanted into adult NSG-S mice. Engrafted BC CML or MF mouse models were randomized into (1) vehicle control, (2) mismatch control, and (3) imetelstat treatment groups (n≥3/group). Bone marrow (BM) and spleen were collected when completing the dosing plan, and the single-cell suspension was analyzed by FACS.
# [3] = 30 mg/kg imetelstat three times a week for 4 weeks, 5 different BC CML, vs vehicle controls
substance,measurement,setting,value
imetelstat,tolerability,[1],well tolerated
same,ADAR1p150 expression,ADAR1p150,significantly reduced
same,BC CML LSC replating (self-renewal) capacity,BC CML CD34+ cells (LSC),ineffective
same,human CD45+ cell proliferation / engraftment,[2]; [3],significant reduction; also recorded: reduced
same,malignant progenitor proliferation / engraftment,[2]; [3],significant reduction; also recorded: reduced
same,splenomegaly,[2]; BC CML xenograft,decreases splenomegaly
